# Measured values from patent US20210253575A1, “PYRROLIDINE AMINE COMPOUNDS FOR THE TREATMENT OF AUTOIMMUNE DISEASE” (Hoffmann-La Roche Inc., priority 2018, published 2021).
# Target: T1, human TLR9 (Homo sapiens, UniProt Q9NR96)
# T1 sequence (Q9NR96 26-1032): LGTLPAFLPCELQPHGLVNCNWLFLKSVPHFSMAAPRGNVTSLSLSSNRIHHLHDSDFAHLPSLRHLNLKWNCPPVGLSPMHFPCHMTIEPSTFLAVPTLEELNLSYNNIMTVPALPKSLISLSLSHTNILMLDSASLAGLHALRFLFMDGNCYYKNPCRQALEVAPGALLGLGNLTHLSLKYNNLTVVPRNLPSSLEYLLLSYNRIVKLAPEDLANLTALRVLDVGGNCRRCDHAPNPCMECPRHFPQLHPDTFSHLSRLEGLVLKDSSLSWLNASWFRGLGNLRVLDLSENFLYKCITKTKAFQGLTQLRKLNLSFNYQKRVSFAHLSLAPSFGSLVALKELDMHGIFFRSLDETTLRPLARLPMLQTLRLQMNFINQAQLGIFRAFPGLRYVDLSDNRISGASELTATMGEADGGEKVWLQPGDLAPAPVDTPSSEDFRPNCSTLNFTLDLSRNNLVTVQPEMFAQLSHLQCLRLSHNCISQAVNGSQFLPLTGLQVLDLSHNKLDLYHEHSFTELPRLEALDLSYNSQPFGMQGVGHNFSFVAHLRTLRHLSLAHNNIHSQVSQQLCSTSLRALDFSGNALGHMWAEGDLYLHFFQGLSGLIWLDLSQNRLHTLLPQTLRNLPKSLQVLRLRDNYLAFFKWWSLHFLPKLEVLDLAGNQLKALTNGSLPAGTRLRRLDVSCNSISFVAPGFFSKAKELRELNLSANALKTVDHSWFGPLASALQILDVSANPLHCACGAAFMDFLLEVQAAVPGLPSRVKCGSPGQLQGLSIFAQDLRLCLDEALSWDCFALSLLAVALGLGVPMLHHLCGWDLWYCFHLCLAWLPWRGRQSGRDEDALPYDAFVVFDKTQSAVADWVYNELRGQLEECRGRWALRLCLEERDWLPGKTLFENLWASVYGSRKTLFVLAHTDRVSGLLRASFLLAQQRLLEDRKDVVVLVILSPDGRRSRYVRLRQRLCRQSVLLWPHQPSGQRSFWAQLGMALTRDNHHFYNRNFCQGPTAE
# Assay: HEK293-Blue-hTLR-9 cells assay (SEAP reporter, ODN2006 stimulation)
# Type: cell-based
# Conditions: HEK293-Blue-hTLR9 cells, ODN2006 ligand, 20 hrs incubation
# Method in brief: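 HEK293-Blue-hTLR9 cells with NF-κB/AP-1-driven SEAP reporter, stimulated with ODN2006 in presence of serially diluted compounds (1% DMSO) for 20 h at 37 °C. Supernatant SEAP measured with QUANTI-Blue after 2 h at 37 °C, absorbance 620–655 nm.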
row,Structure (SMILES),IC50 [nM]
1,"N#Cc1ccc(N2C[C@H](CN3CC4(CCCNC4)C3)[C@@H](C(F)(F)F)C2)c2cccnc12 [Example 8, 5-[(3S,7R)-3-(2,8-diazaspiro[3.5]nonan-2-ylmethyl)-4-(trifluoromethyl)pyrrolidin-1-yl]quinoline-8-carbonitrile]",113
2,"C[C@H]1CN(c2ccc(C#N)c3ncccc23)C[C@@H]1CN1CCC2(CCNC2)C1 (stereo partly drawn) [Example 35, 5-[(3S,4R)-3-(2,7-diazaspiro[4.4]nonan-2-ylmethyl)-4-methyl-pyrrolidin-1-yl]quinoline-8-carbonitrile]",50
3,"CC(C)[C@@H]1CN(c2ccc(C#N)c3ncccc23)C[C@H]1CN1CCC2(CCNCC2)CC1 (relative stereo) [Example 36, 5-[Trans-3-(3,9-diazaspiro[5.5]undecan-3-ylmethyl)-4-isopropyl-pyrrolidin-1-yl]quinoline-8-carbonitrile]",50
4,"N#Cc1ccc(N2C[C@H](CN3CCC(N4CCNCC4)CC3)[C@@H](C(F)(F)F)C2)c2cccnc12 [Example 52, 5-[(3S,4R)-3-[(4-piperazin-1-yl-1-piperidyl)methyl]-4-(trifluoromethyl)pyrrolidin-1-yl]quinoline-8-carbonitrile]",208
5,"N#Cc1ccc(N2C[C@H](CN3C4CCC3CC(N)C4)[C@@H](C(F)(F)F)C2)c2nccnc12 (stereo partly drawn) [Example 63, 8-[(3S,4R)-3-[(3-amino-8-azabicyclo[3.2.1]octan-8-yl)methyl]-4-(trifluoromethyl)pyrrolidin-1-yl]quinoxaline-5-carbonitrile]",294
6,"FC(F)(F)c1ccc(N2C[C@@H](CN3CCC4(CCNC4)C3)[C@H](C(F)(F)F)C2)c2nccnc12 (relative stereo) [Example 19, 5-[Trans-3-(2,7-diazaspiro[4.4]nonan-2-ylmethyl)-4-(trifluoromethyl)pyrrolidin-1-yl]-8-(trifluoromethyl)quinoxaline]",815
7,"N#Cc1ccc(N2CC(CN3CCC(N4CCCCC4)CC3)C3(CC3)C2)c2nccnc12 (stereo not drawn) [Example 11, 8-[7-[[4-(1-Piperidyl)-1-piperidyl]methyl]-5-azaspiro[2.4]heptan-5-yl]quinoxaline-5-carbonitrile]",125
8,"CN(C)C[C@@H]1CCN(C[C@H]2CN(c3ccc(C#N)c4nccnc34)C[C@@H]2C(F)(F)F)C1 [Example 82, 8-[(3S,4R)-3-[[(3S)-3-[(dimethylamino)methyl]pyrrolidin-1-yl]methyl]-4-(trifluoromethyl)pyrrolidin-1-yl]quinoxaline-5-carbonitrile]",304
9,"N#Cc1ccc(N2CC(CN3CC4CCNCC43)C3(CC3)C2)c2nccnc12 (stereo not drawn) [Example 50, 8-[7-(3,8-Diazabicyclo[4.2.0]octan-8-ylmethyl)-5-azaspiro[2.4]heptan-5-yl]quinoxaline-5-carbonitrile]",259
